We go through 1 compound from patent US9040542B2, “Solid forms of gyrase inhibitor (R)-1-ethyl-3-[6-fluoro-5-[2-(1-hydroxy-1-methyl-ethyl)pryimidin-5-yl]-7-(tetrahydrofuran-2-yl)-1H-benzimidazol-2-yl]urea” (priority 2011, dated 2015).

One series deals with S. aureus DNA gyrase (Staphylococcus aureus, UniProt P0A0K8). As to the kind of experiment: DNA Gyrase ATPase Assay. The class given is biochemical. The settings on record: 30° C., read-out: Ki, Inhibition of S. aureus DNA Gyrase. The method, then: The ATP hydrolysis activity of S. aureus DNA gyrase is measured by coupling the production of ADP through pyruvate kinase/lactate dehydrogenase to the oxidation of NADH. This method has been described previously (Tamura and Gellert, 1990, J. Biol. Chem., 265, 21342).
ATPase assays are carried out at 30° C. in buffered solutions containing 100 mM TRIS pH 7.6, 1.5 mM MgCl2, 150 mM KCl. The coupling system contains final concentrations of 2.5 mM phosphoenol pyruvate, 200 μM nicotinamide adenine dinucleotide (NADH), 1 mM DTT, 30 ug/ml pyruvate kinase, and 10 ug/ml lactate dehydrogenase. The enzyme (90 nM final concentration) and a DMSO solution (3% final concentration) of a compound is added. The reaction mixture is allowed to incubate for 10 minutes at 30° C. The reaction is initiated by the addition of ATP to a final concentration of 0.9 mM, and the rate of NADH disappearance is monitored at 340 nanometers over the course of 10 minutes. The Ki and IC50 values are determined from rate versus concentration profiles.

In the next series the target is S. aureus TopoIV enzyme (Staphylococcus aureus, UniProt P0C1S7). As to the kind of experiment: DNA Topo IV ATPase Assay. The class given is biochemical. The settings on record: 30° C., read-out: Ki, Inhibition of S. aureus DNA Topo IV. How it is done:
The conversion of ATP to ADP by S. aureus TopoIV enzyme is coupled to the conversion of NADH to NAD+, and the progress of the reaction is measured by the change in absorbance at 340 nm. TopoIV (64 nM) is incubated with the selected compound (3% DMSO final) in buffer for 10 minutes at 30° C. The buffer consists of 100 mM Tris 7.5, 1.5 mM MgCl2, 200 mM K•Glutamate, 2.5 mM phosphoenol pyruvate, 0.2 mM NADH, 1 mM DTT, 5 μg/mL linearized DNA, 50 μg/mL BSA, 30 μg/mL pyruvate kinase, and 10 μg/mL lactate dehyrodgenase (LDH). The reaction is initiated with ATP, and rates are monitored continuously for 20 minutes at 30° C. on a Molecular Devices SpectraMAX plate reader. The inhibition constant, Ki, and the IC50 are determined from plots of rate vs. concentration of selected compound fit to the Morrison Equation for tight binding inhibitors.

Series [1] can be described thus: Stability data of solid forms on storage. The class given is physicochemical.

For the compound `CCNC(=O)Nc1nc2cc(-c3cnc(C(C)(C)O)nc3)c(F)c([C@H]3CCCO3)c2[nH]1` [Compound 23, 1-ethyl-3-[6-fluoro-5-[2-(1-hydroxy-1-methyl-ethyl)pyrimidin-5-yl]-7-[(2R)-tetrahydrofuran-2-yl]-1H-benzimidazol-2-yl]urea], the Ki (usually a dissociation constant, usually derived from enzyme kinetics or from competition with a known ligand) on S. aureus DNA gyrase stood at 9 nM; on S. aureus TopoIV enzyme it was 12 nM. Moreover, in series [1] (40° C. with relative humidity of up to 75%), the “stability of solid form” value is given as “stable for at least one month”. Moreover, the “chemical and physical stability” value in series [1] (all storage conditions (25° C./60% RH, 40° C./ambient, and 40° C./75% RH), 1 month timepoint) is “chemically and physically stable”.
